From US9464084B2, “P2X7 modulators” (Janssen Pharmaceutica NV, priority 2013, dated 2016)

How the values were obtained:
Type in all cases: cell-based
P2X7 [1] = molecular target: T1, P2X7 (Homo sapiens (Human), UniProt Q99572); test: Ca2+ flux (FLIPR) in 1321N1 cells expressing recombinant human P2X7 channel; conditions: 250 μM BzATP;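 also: Calcium-4 dye-loaded cells exposed to compound for 30 min before agonist addition, fluorescence change read 180 s after agonist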
P2X7 [2] = molecular target: T1, P2X7; test: P2X7 antagonism in human PBMCs (LPS + Bz-ATP induced IL-1β release, ELISA); conditions: LPS 30 ng/ml, Bz-ATP 0.5 mM; for PBMC 10 μM (% control): compound 10 μM; for PBMC 1 μM (% control): compound 1 μM;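 as to all read-outs here: PBMCs from donor human blood, with a further 1.5 h incubation of the cells in the assay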
rat P2X7 = rat P2X7 (Rattus norvegicus (Rat), UniProt Q64663); test: Ca2+ flux (FLIPR) in 1321N1 cells expressing recombinant rat P2X7 channel; conditions: 250 μM BzATP;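 also: Calcium-4 dye fluorescence change read 180 s after agonist addition, following 30 min cell preincubation with test compound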
Chain of rat P2X7 (Q64663 whole entry): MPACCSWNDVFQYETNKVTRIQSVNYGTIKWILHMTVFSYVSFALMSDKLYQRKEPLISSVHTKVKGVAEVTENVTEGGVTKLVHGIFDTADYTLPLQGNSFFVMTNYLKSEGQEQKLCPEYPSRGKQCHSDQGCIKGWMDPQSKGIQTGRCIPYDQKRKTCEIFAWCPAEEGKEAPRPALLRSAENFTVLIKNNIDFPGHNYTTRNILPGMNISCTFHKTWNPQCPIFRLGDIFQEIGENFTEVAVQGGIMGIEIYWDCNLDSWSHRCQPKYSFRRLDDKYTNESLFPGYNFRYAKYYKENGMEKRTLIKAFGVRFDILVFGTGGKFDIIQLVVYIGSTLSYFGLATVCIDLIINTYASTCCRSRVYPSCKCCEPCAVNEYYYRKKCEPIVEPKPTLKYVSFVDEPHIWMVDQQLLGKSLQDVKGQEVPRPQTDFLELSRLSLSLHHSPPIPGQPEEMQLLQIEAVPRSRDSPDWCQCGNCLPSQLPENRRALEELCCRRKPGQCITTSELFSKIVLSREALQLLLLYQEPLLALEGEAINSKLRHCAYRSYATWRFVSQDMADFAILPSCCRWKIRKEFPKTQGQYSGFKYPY
Procedure: Cells were seeded at a density of 25000 cells/well (96-well clear bottom black walled plates) in 100 μl volume/well. On the day of the experiment, cell plates were washed with assay buffer, containing (in mM): 130 NaCl, 2 KCl, 1 CaCl2, 1 MgCl2, 10 HEPES, 5 glucose; pH 7.40 and 300 mOs. After the wash, cells were loaded with the Calcium-4 dye (Molecular Device) and incubated in the dark for 60 minutes. Test compounds were prepared at 250× the test concentration in neat DMSO. Intermediate 96-well compound plates were prepared by transferring 1.2 μL of the compound into 300 μL of assay buffer. A further 3× dilution occurred when transferring 50 μL/well of the compound plate to 100 μL/well in the cell plate. Cells were incubated with test compounds and dye for 30 minutes. […] The fluorescence change was measured 180 seconds after adding the agonist.

T1 sequence (Q99572 whole entry): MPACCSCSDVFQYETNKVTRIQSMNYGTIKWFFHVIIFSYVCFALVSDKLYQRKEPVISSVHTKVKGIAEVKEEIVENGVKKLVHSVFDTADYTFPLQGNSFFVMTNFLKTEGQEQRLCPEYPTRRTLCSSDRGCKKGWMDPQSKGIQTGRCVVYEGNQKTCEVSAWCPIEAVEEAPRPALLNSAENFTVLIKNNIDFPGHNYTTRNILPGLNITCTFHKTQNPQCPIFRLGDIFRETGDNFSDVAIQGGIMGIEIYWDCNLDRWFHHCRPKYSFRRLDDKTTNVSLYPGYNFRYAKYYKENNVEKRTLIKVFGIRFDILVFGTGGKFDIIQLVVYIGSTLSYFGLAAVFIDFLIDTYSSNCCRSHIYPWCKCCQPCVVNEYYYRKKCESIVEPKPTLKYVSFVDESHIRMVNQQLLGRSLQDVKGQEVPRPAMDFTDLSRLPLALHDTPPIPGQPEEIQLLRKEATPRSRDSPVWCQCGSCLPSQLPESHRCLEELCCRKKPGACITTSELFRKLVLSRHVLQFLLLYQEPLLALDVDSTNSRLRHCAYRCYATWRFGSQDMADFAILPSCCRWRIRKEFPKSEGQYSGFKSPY

Row | IC50 (P2X7 [1]) | PBMC 10 μM (% control) (P2X7 [2]) | IC50 (rat P2X7) | PBMC 1 μM (% control) (P2X7 [2]) | SMILES
1 | 9590 nM | 40.5 % control | – | – | C[C@@H]1c2nnn(-c3ccccn3)c2CCN1C(=O)c1ccc(F)c(Cl)c1Cl (single isomer, unassigned) [Example 141, (R*)-(2,3-Dichloro-4-fluorophenyl)(4-methyl-1-(pyridin-2-yl)-6,7-dihydro-1H-[1,2,3]triazolo[4,5-c]pyridin-5(4H)-yl)methanone]
2 | 2700 nM | 30.9 % control | > 10000 nM | – | C[C@@H]1c2nnn(-c3cccc(F)n3)c2CCN1C(=O)c1cccc(C(F)(F)F)c1Cl (single isomer, unassigned) [Example 146, (R*)-(2-chloro-3-(trifluoromethyl)phenyl)(1-(6-fluoropyridin-2-yl)-4-methyl-6,7-dihydro-1H-[1,2,3]triazolo[4,5-c]pyridin-5(4H)-yl)methanone]
3 | 506 nM | 17.8 % control | 6680 nM | – | C[C@@H]1Cc2c(nnn2-c2ncccn2)CN1C(=O)c1cccc(C(F)(F)F)c1Cl (single isomer, unassigned) [Example 221, (6R*)-5-{[2-Chloro-3-(trifluoromethyl)phenyl]carbonyl}-6-methyl-1-pyrimidin-2-yl-4,5,6,7-tetrahydro-1H-[1,2,3]triazolo[4,5-c]pyridine]
4 | 200 nM | −40.9 % control | 2000 nM | – | CC1C=CN=C(n2nnc3c2CCN(C(=O)c2cccc(C(F)(F)F)c2Cl)[C@@H]3C)N1 (single isomer, unassigned) [Example 234, (4R*)-(2-Chloro-3-(trifluoromethyl)phenyl)((4R)-4-methyl-1-(6-methyl-1,6-dihydropyrimidin-2-yl)-6,7-dihydro-1H-[1,2,3]triazolo[4,5-c]pyridin-5(4H)-yl)methanone]
5 | > 10000 nM | 101.8 % control | > 10000 nM | – | C[C@@H]1c2nnn(-c3cncnc3)c2CCN1C(=O)c1cccc(C(F)(F)F)c1Cl (single isomer, unassigned) [Example 334, (R*)-(2-chloro-3-(trifluoromethyl)phenyl)(4-methyl-1-(pyrimidin-5-yl)-6,7-dihydro-1H-[1,2,3]triazolo[4,5-c]pyridin-5(4H)-yl)methanone]
6 | 104 nM | – | 456 nM | 8.5 % control | CC(C)C1c2ncn(-c3cnccn3)c2CCN1C(=O)c1cccc(C(F)(F)F)c1Cl (stereo not drawn) [Example 16, (2-Chloro-3-(trifluoromethyl)phenyl)(4-isopropyl-1-(pyrazin-2-yl)-6,7-dihydro-1H-imidazo[4,5-c]pyridin-5(4H)-yl)methanone]
7 | 13.8 nM | – | 16.5 nM | 4.8 % control | CCOC(=O)C1c2ncn(-c3cnccn3)c2CCN1C(=O)c1cccc(C(F)(F)F)c1Cl (stereo not drawn) [Example 28, Ethyl 5-{[2-chloro-3-(trifluoromethyl)phenyl]carbonyl}-1-pyrazin-2-yl-4,5,6,7-tetrahydro-1H-imidazo[4,5-c]pyridine-4-carboxylate]
8 | 3080 nM | – | – | 16.6 % control | O=C(OCC1c2ncn(-c3ccccc3)c2CCN1C(=O)c1cccc(C(F)(F)F)c1Cl)c1cccc(C(F)(F)F)c1Cl (stereo not drawn) [Example 36, (5-{[2-Chloro-3-(trifluoromethyl)phenyl]carbonyl}-1-phenyl-4,5,6,7-tetrahydro-1H-imidazo[4,5-c]pyridin-4-yl)methyl 2-chloro-3-(trifluoromethyl)benzoate]
9 | 99.3 nM | −9.1 % control | 1530 nM | – | Cc1nc2c(n1-c1ccccc1)CCN(C(=O)c1cccc(C(F)(F)F)c1Cl)C2 [Example 37, (2-Chloro-3-(trifluoromethyl)phenyl)(2-methyl-1-phenyl-6,7-dihydro-1H-imidazo[4,5-c]pyridin-5(4H)-yl)methanone]
10 | 14.3 nM | −0.3 % control | – | – | O=C(c1cccc(C(F)(F)F)c1Cl)N1CCc2c(nc(C(F)(F)F)n2-c2ccccc2)C1 [Example 38, (2-Chloro-3-(trifluoromethyl)phenyl)(1-phenyl-2-(trifluoromethyl)-6,7-dihydro-1H-imidazo[4,5-c]pyridin-5(4H)-yl)methanone]
11 | 25.1 nM | – | 398 nM | 10.1 % control | CC1c2ncn(-c3cnccn3)c2C=CN1C(=O)c1cccc(C(F)(F)F)c1Cl (stereo not drawn) [Example 56, 5-{[2-Chloro-3-(trifluoromethyl)phenyl]carbonyl}-4-methyl-1-pyrazin-2-yl-4,5-dihydro-1H-imidazo[4,5-c]pyridine]
12 | 49 nM | 11.1 % control | 397 nM | – | CC1c2nnn(-c3ccc(F)cn3)c2CCN1C(=O)c1cccc(C(F)(F)F)c1Cl (stereo not drawn) [Example 71, 5-{[2-Chloro-3-(trifluoromethyl)phenyl]carbonyl}-1-(5-fluoropyridin-2-yl)-4-methyl-4,5,6,7-tetrahydro-1H-[1,2,3]triazolo[4,5-c]pyridine]
13 | 158 nM | – | 1580 nM | 64.4 % control | Cn1nc(-c2ccc(F)cc2)c2c1CN(C(=O)c1cccc(C(F)(F)F)c1Cl)CC2 [Example 106, 6-{[2-Chloro-3-(trifluoromethyl)phenyl]carbonyl}-3-(4-fluorophenyl)-1-methyl-4,5,6,7-tetrahydro-1H-pyrazolo[3,4-c]pyridine]
14 | 251 nM | – | – | 94.1 % control | Cn1nc(-c2ccc(F)cc2)c2c1CN(C(=O)c1cccc(Cl)c1Cl)CC2 [Example 109, 6-[(2,3-Dichlorophenyl)carbonyl]-3-(4-fluorophenyl)-1-methyl-4,5,6,7-tetrahydro-1H-pyrazolo[3,4-c]pyridine]
15 | 63.1 nM | – | 1260 nM | 20.4 % control | O=C(c1cccc(Cl)c1Cl)N1CCc2c(-c3ccc(F)cc3)n[nH]c2C1 [Example 114, 6-[(2,3-Dichlorophenyl)carbonyl]-3-(4-fluorophenyl)-4,5,6,7-tetrahydro-2H-pyrazolo[3,4-c]pyridine]
16 | 2310 nM | 15.2 % control | – | – | COc1ccc(-n2nnc3c2CCN(C(=O)c2cccc(C(F)(F)F)c2Cl)C3C)nc1 (stereo not drawn) [Example 145, (2-Chloro-3-(trifluoromethyl)phenyl)(1-(5-methoxypyridin-2-yl)-4-methyl-6,7-dihydro-1H-[1,2,3]triazolo[4,5-c]pyridin-5(4H)-yl)methanone]
17 | 1140 nM | −2.3 % control | – | – | CC1CN(C(=O)c2cccc(Cl)c2Cl)Cc2nnn(-c3ccccc3)c21 (stereo not drawn) [Example 244, (2,3-Dichlorophenyl)(7-methyl-1-phenyl-6,7-dihydro-1H-[1,2,3]triazolo[4,5-c]pyridin-5(4H)-yl)methanone]
18 | 2330 nM | −0.8 % control | – | – | CC1CN(C(=O)c2cccc(Cl)c2Cl)Cc2nnn(-c3ccc(F)cc3)c21 (stereo not drawn) [Example 247, (2,3-Dichlorophenyl)(1-(4-fluorophenyl)-7-methyl-6,7-dihydro-1H-[1,2,3]triazolo[4,5-c]pyridin-5(4H)-yl)methanone]
19 | – | −3.2 % control | 4840 nM | – | CCOc1cccnc1-n1nnc2c1CCN(C(=O)c1cccc(C(F)(F)F)c1Cl)C2C (stereo not drawn) [Example 258, (2-Chloro-3-(trifluoromethyl)phenyl)(1-(3-ethoxypyridin-2-yl)-4-methyl-6,7-dihydro-1H-[1,2,3]triazolo[4,5-c]pyridin-5(4H)-yl)methanone]
20 | – | −3.6 % control | 1550 nM | – | CC1c2ncn(-c3ccc(F)cn3)c2CCN1C(=O)c1cccc(C(F)(F)F)c1F (stereo not drawn) [Example 262, (2-fluoro-3-(trifluoromethyl)phenyl)(1-(5-fluoropyridin-2-yl)-4-methyl-6,7-dihydro-1H-imidazo[4,5-c]pyridin-5(4H)-yl)methanone]
21 | – | 16.3 % control | 20.6 nM | – | Cc1ccnc(-n2nnc3c2CCN(C(=O)c2cccc(C(F)(F)F)c2F)C3C)n1 (stereo not drawn) [Example 269, (2-fluoro-3-(trifluoromethyl)phenyl)(4-methyl-1-(4-methylpyrimidin-2-yl)-6,7-dihydro-1H-[1,2,3]triazolo[4,5-c]pyridin-5(4H)-yl)methanone]
22 | – | −3.7 % control | 1920 nM | – | O=C(c1ccc(Cl)cc1Cl)N1CCc2c(nnn2-c2cnccn2)C1 [Example 277, (2,4-dichlorophenyl)(1-(pyrazin-2-yl)-6,7-dihydro-1H-[1,2,3]triazolo[4,5-c]pyridin-5(4H)-yl)methanone]
23 | – | −11.3 % control | 428 nM | – | CCCOc1cccnc1-n1nnc2c1CCN(C(=O)c1cccc(C(F)(F)F)c1Cl)C2C (stereo not drawn) [Example 293, (2-chloro-3-(trifluoromethyl)phenyl)(4-methyl-1-(3-propoxypyridin-2-yl)-6,7-dihydro-1H-[1,2,3]triazolo[4,5-c]pyridin-5(4H)-yl)methanone]
24 | – | −2.2 % control | 163 nM | – | Cc1ccc(-n2nnc3c2CCN(C(=O)c2cccc(C(F)(F)F)c2Cl)C3C)nc1 (stereo not drawn) [Example 301, (2-chloro-3-(trifluoromethyl)phenyl)(4-methyl-1-(5-methylpyridin-2-yl)-6,7-dihydro-1H-[1,2,3]triazolo[4,5-c]pyridin-5(4H)-yl)methanone]
25 | 1110 nM | −5.4 % control | – | – | O=C(c1ccc(Cl)cc1Cl)N1CCc2c(ncn2-c2ccc(F)cn2)C1 [Example 313, (2,4-dichlorophenyl)(1-(5-fluoropyridin-2-yl)-6,7-dihydro-1H-imidazo[4,5-c]pyridin-5(4H)-yl)methanone]

Row | SMILES | IC50 (P2X7 [1]) | PBMC 10 μM (% control) (P2X7 [2]) | IC50 (rat P2X7) | PBMC 1 μM (% control) (P2X7 [2])
26 | CC1c2ncn(-c3ccc(F)cn3)c2C=CN1C(=O)c1cccc(C(F)(F)F)c1Cl (stereo not drawn) [Example 321, (2-chloro-3-(trifluoromethyl)phenyl)(1-(5-fluoropyridin-2-yl)-4-methyl-1H-imidazo[4,5-c]pyridin-5(4H)-yl)methanone] | – | 14.1 % control | 589 nM | –
